Common to all, as to assay type: in vivo
Assay [1] concerns perception of the sweet taste in humans. As to the kind of experiment: Trained descriptive analysis (DA) panel, sweet attribute. The conditions noted are these: 35 ppm; for compound effects beyond the additive effect of inherent sweetness: 4% fructose and 8% sucrose; for perceived sweetness compared to control sweetener solutions (FIG. 2): aqueous fructose and sucrose solutions at pH 3; for perceived sweetness compared to control sweetener solutions (FIG. 2) / perceived sweetness compared to control sweetener solutions (FIG. 1): ** p<0.01; for perceived sweetness compared to control sweetener solutions (FIG. 1): aqueous fructose and sucrose solutions at pH 7. How it is done:
The effect of the test compounds on the perception of the sweet taste in an aqueous environment, in the absence or presence of carbohydrate sweeteners, was evaluated using a descriptive analysis methodology with a group of trained panelists, as follows.
Candidate panelists were recruited, with prescreening and personal interviews, and were assessed for their ability to detect, recognize and differentiate basic taste attributes or mixtures thereof as part of a standardized acuity test. These candidate panelists were also assessed for their innate ability to identify flavors, and to rank on intensity scales. Other senses such as smell and vision were also included as part of the assessment. Candidates also were screened for their ability to use the language to describe and articulate ideas.
Selected candidates proceeded to training as a group in three phases: (1) Lexicon development, (2) Concept alignment, and (3) Scaling descriptors. During lexicon development, panelists evaluated products appropriate for use in the study to generate and align on terms describing the flavor, taste, aromatic, trigeminal, and temporal attributes. During concept alignment, the panel evaluated the products mentioned above to clarify and confirm the attributes that were generated during lexicon development using reference standards that appropriately define each attribute; these are either physical references (e.g. sucrose solutions) or verbal descriptions (e.g. overall flavor). Product terms and concepts were validated during this portion of the study.
In the last phase, scaling descriptors, the panel participated in a series of exercises focused on ordering and ranking samples according to relative attribute intensity, measuring attribute intensity using a defined length of line scale. Whenever possible, different levels or concentration of references were used as anchors to facilitate use of the scale. Panelists were provided with blinded references at this stage to evaluate their understanding and perception of the scale.
The panel used in this example was trained to reference sweet attributes in an absolute manner, such that a particular concentration of sweetener is always measured by the panelists at the same point using a 15 cm line scale where each cm represents a 1% increase in sucrose to cover the range of 0% to 15% sucrose. For the rest of the attributes, the panel was trained using a hybrid approach between descriptive analysis methods (e.g. quantitative descriptive analysis, the sensory spectrum, etc.) well-known to those skilled in the art.
The trained panel was then used for a descriptive analysis assessment for Compounds 1, 2 and 3 in aqueous solutions at pH 3 and pH 7. Each of the three compounds was tested at 35 ppm in sucrose and fructose sweeteners. In addition, Compounds 1, 2 and 3 were also examined in water at pH 3 and pH 7 to assess for any inherent sweetness.
The aqueous sweetener solutions were prepared by adding, fructose or sucrose (by weight), to water to achieve the desired concentration. Aqueous sucrose solutions at pH 3 were buffered using a final concentration of 0.096% Citric Acid plus 0.036% Sodium Citrate while aqueous fructose solutions at pH 3 were buffered using a final concentration of 0.06% Citric Acid and 0.0225% Sodium Citrate.
Compounds were first prepared as a […] concentrated stock solution in 100% ethanol. These concentrated stocks were then added to the aqueous sweetener solutions to result in a final ethanol concentration of 0.2%. In addition to compounds, a solubilizing agent at a final concentration of 0.02% was added to the aqueous sweetener solutions. Control samples were also balanced with 0.2% ethanol and in certain cases 0.02% solubilizing agent.
Both control (aqueous sweetener solutions without compound) and variant (aqueous sweetener solutions with compound) samples were blinded and randomized (by sweetener and pH blocks). […]

The test system of assay [2] is perception of the sweet taste of an aqueous solution of sweetener in humans. As to the kind of experiment: Two-alternative forced choice "sip and spit" method (2AFC). The conditions noted are these: for Fold increase in perceived sweetness: positive control conc. / test sample conc. How it is done: The taste test panelists used in the Examples 1-3 were selected using a sensory acuity screening program. Candidate taste panelists were recruited, with prescreening and personal interviews, and were assessed and for their ability to detect, recognize and differentiate basic taste attributes or mixtures thereof as part of a standardized acuity test. This included basic tastes of sweet, sour, salty, bitter and umami, as well as having the capacity to focus on specific aspects of sensory character such as ranking the various tastes perceived and identifying the basic tastes presented at threshold levels.
The effect of the test compounds on the perception of the sweet taste of an aqueous solution of sweetener in humans was evaluated using a two-alternative forced choice “sip and spit” method (2AFC).
(§1) The aqueous sweetener solutions were prepared by adding, fructose, sucrose or glucose (by weight), to water to achieve the desired concentration.
Compounds were first prepared as a 500-fold concentrated stock solution in 100% ethanol. These concentrated stocks were then added to the aqueous sweetener solutions to result in a final ethanol concentration of 0.2%. The control (positive and negative) samples were also normalized to 0.2% ethanol. This level of ethanol was not seen to contribute any perceived sweetness.
The 2AFC test used for compound evaluation was a blind and randomized test where taste panelists (n=15) evaluate a pair of sweetener solutions at a time one sample contains aqueous sweetener solution plus compound (i.e. test) while the other contains aqueous sweetener solution at higher concentration without compound (i.e. positive control). Each test sample was compared against a positive control. For example, if the test sample contained 1× sweetener concentration with compound (e.g. 5% sucrose with compound), the positive control sample contained a 1.1× sweetener concentration (e.g. 5.5% sucrose without compound).
Panelists were instructed not to eat or drink (except water) for at least 1 h before the test. During the test, panelists were instructed to sip each sample, swirl it around their mouth and then expectorate. After tasting each sample in the pair, panelists were instructed to record the sample that is “sweeter” in taste. Panelists cleansed their palates by rinsing with water, eating a cracker and waiting for an interval of about 5 minutes. Each pair was tasted twice. All samples were tasted at ambient temperatures. Data were analyzed using binomial probabilities.
Approximate levels of sweetness enhancement in column 5 of Table 2 were calculated as follows:
Approximate levels of sweetness enhancement=Sweetener concentration of positive control surpassed by the test sample, divided by sweetener concentration for compound-containing sample (e.g. 1.15×=5.75% sucrose/5% sucrose).

Assay [3] shares this test system. Description: Ranking "sip and spit" assessment of sweetness perception (R index). The conditions noted are these: test sample 5% sucrose; compound 10 ppm; vs negative control; R index >=60 = significantly different. How it is done:
The effect of the test compounds on the perception of the sweet taste of an aqueous solution of sweetener in humans was evaluated using a ranking “sip and spit” method.
as §1
Compounds were first prepared as a 500-fold concentrated stock solution in 100% ethanol. These concentrated stocks were then added to the aqueous sweetener solutions to result in a final ethanol concentration of 0.2%. The control (positive and negative) samples were also normalized to 0.2% ethanol.
In the ranking test used for compound evaluation, taste panelists (n=15), rank samples in increasing order of sweetness. One set, comprising of 6 samples, was presented to each panelists at a given time and are asked to rank them in order of increasing sweetness.
Panelists were instructed not to eat or drink (except water) for at least 1 h before the test. During the test, panelists were instructed to sip each sample, swirl it around their mouth and then expectorate. After tasting each set, panelists were instructed to rank the 6 samples within the set from least sweet to most sweet. Where rank 1—is lowest in sweetness and rank 6—is highest in sweetness. Panelists cleansed their palates by rinsing with water, eating a cracker and waiting for an interval of 10 minutes. […]

The mark [4] stands for this setting: test sample 4% fructose, compound 25 ppm.
Where [5] appears, read: test sample 4% fructose, positive control fructose, compound 25 ppm.
[6] abbreviates: test sample 4% fructose, positive control fructose, compound 20 ppm.

Structures are written as SMILES.

Consider `COc1ccc([C@H]2CC(=O)c3c(O)cccc3O2)cc1O` (single isomer, unassigned) [Compound 3], for which the “compound effects beyond the additive effect of inherent sweetness” value in assay [1] (pH 3, Table 7 vs Table 5) is given as “super-additive effects”; in assay [1] (pH 7, Table 6 vs Table 4), “super-additive effects”. Besides, the “perceived sweetness compared to control sweetener solutions (FIG. 2)” value in assay [1] is “significant increase in perceived sweetness”. Moreover, in assay [1], the “perceived sweetness compared to control sweetener solutions (FIG. 1)” value is reported as “significant increase in perceived sweetness”. For the same compound, the “Fold increase in perceived sweetness” value in assay [2] (setting [4]) was over 1.25X; in assay [2] (test sample 5% sucrose, compound 15 ppm) it was over 1.20X; in assay [2] (test sample 6.5% glucose, compound 25 ppm), over 1.20X. The “Sweetener Concentration of positive control surpassed by test sample” value (“Sweetener Concentration” below) in assay [2] (setting [5]) is recorded as over 5%; in assay [2] (test sample 5% sucrose, positive control sucrose, compound 15 ppm), over 6%; in assay [2] (test sample 6.5% glucose, positive control glucose, compound 25 ppm), over 7.8%.
On to `O=C1c2c(O)cc(O)cc2OC(c2ccc(O)c(O)c2)C1O` (centres unmarked) [Compound 11, 2-(3,4-dihydroxyphenyl)-3,5,7-trihydroxychroman-4-one], for which, in assay [3], the “R Index Score” value came to 64.
As to `COc1ccc(C2CC(=O)c3c(O)cc(OCCCC(=O)O)cc3O2)cc1O` (centres unmarked) [Compound 4, 4-((5-hydroxy-2-(3-hydroxy-4-methoxyphenyl)-4-oxochroman-7-yl)oxy)butanoic acid], in assay [2] (setting [6]), the “Sweetener Concentration” value is reported as over 4.4%.
On the same count and under the same terms, the value for `COc1ccc(C2CC(=O)c3c(O)cc(F)cc3O2)cc1O` (centres unmarked) [Compound 15, 7-fluoro-5-hydroxy-2-(3-hydroxy-4-methoxyphenyl)chroman-4-one] was over 4.4%.
For `COc1ccc([C@@H]2CC(=O)c3c(O)cccc3O2)cc1O` (single isomer, unassigned) [Compound 2], the “compound effects beyond the additive effect of inherent sweetness” value is “super-additive effects” in assay [1] (pH 3, Table 7 vs Table 5) and “super-additive effects” in assay [1] (pH 7, Table 6 vs Table 4). In addition, in assay [1], the “perceived sweetness compared to control sweetener solutions (FIG. 2)” value is on record as “significant increase in perceived sweetness”. Moreover, in assay [1], the “perceived sweetness compared to control sweetener solutions (FIG. 1)” value was “significant increase in perceived sweetness”. The “Fold increase in perceived sweetness” value is given as over 1.20X in assay [2] (setting [4]); over 1.20X in assay [2] (test sample 5% sucrose, compound 15, 25 ppm); over 1.15X in assay [2] (test sample 6.5% glucose, compound 10, 20, 25 ppm). For the same compound, the “Sweetener Concentration” value in assay [2] (setting [5]) is given as over 4.8%; in assay [2] (test sample 5% sucrose, positive control sucrose, compound 15, 25 ppm) it was over 6%; in assay [2] (test sample 6.5% glucose, positive control glucose, compound 10, 20, 25 ppm) it was over 7.48%.
As to `COc1ccc(C2CC(=O)c3c(O)cc(OCCCS(=O)(=O)[O-])cc3O2)cc1O.[K+]` (centres unmarked) [Compound 14, 3-((5-hydroxy-2-(3-hydroxy-4-methoxyphenyl)-4-oxochroman-7-yl)oxy)propane-1-sulfonic acid potassium salt], in assay [2] (test sample 4% fructose, compound 20 ppm), the “Fold increase in perceived sweetness” value was over 1.1X. Also, the “Sweetener Concentration” value in assay [2] (setting [6]) was over 4.4%.
With `CCCOc1ccc(C2CC(=O)c3c(O)cc(O)cc3O2)cc1O` (centres unmarked) [Compound 5, 5,7-dihydroxy-2-(3-hydroxy-4-propoxyphenyl)chroman-4-one], in assay [2] (setting [6]), the “Sweetener Concentration” value is recorded as over 4.4%.

The record behind these values is patent US20150050410A1, “COMPOUNDS, COMPOSITIONS, AND METHODS FOR MODULATING SWEET TASTE” (Chromocell Corporation, priority 2013, published 2015).
